Assay [1] is described as follows: Osteocalcin subcutaneous infusion in wt mice: glucose tolerance after glucose injection. The note with it: wild type mice, 0.3 or 3 ng/hour subcutaneously for 14 days, then glucose injection, 120 minutes, vs PBS. The format is in vivo, mouse. On the procedure: FIG. 11. […] Wt mice were infused subcutaneously with indicated doses of recombinant osteocalcin or PBS for 14 days before receiving a single injection of glucose. Blood glucose was measured thereafter at indicated times.
Metabolic studies. For glucose tolerance test (GTT), glucose (2 g/kg body weight (BW)) was injected intraperitoneally (IP) after an overnight fast and blood glucose was monitored using blood glucose strips and the Accu-Check glucometer (Roche) at indicated times. For glucose stimulated insulin secretion test (GSIS), glucose (3 g/kg BW) was injected IP after an overnight fast; sera were collected from tails and insulin measured as described (Mauvais-Jarvis et al., 2000). For insulin tolerance test (ITT), mice were fasted for six hours, injected IP with insulin (0.2 U/kg BW) and blood glucose levels were measured at indicated times as described (Mauvais-Jarvis et al., 2002). ITT data are presented as percentage of initial blood glucose concentration. […] Streptozotocin ([…] single injection, Sigma) was injected IP and blood glucose measured as described above every 2 days thereafter. […] Food intake was measured using metabolic cages as the daily change of food weight. Energy expenditure was measured using metabolic cages connected to a calorimeter (Columbus Instrument). Heat values (Kcal/Hr) were recorded over 2 days and reported to each mouse BW. […]

In assay [2] the test system is Insulin and Cyclin D1 expression in WT islets. The experiment in a line: Insulin and Cyclin D1 expression in islets cultured with uncarboxylated osteocalcin. The format is cell-based, mouse. The note with it: 0.3 ng/ml (FIG. 7L). How it is done: (§1) FIG. 7A-O. Esp−/− Mice Are a Model of Increased Osteocalcin Bioactivity. (FIGS. 7A-G) Comparison between 6-week-old WT, Esp−/, Ocn+/−, and Esp−/−; Ocn+/− mice. (FIG. 7A) Blood glucose levels. (FIG. 7B) Serum insulin levels. (FIG. 7C) Serum adiponectin levels. (FIG. 7D) GTT. (FIG. 7E) ITT. (FIG. 7F) GSIS test. (FIG. 7G) Quantification of the number of Ki67-immunoreactive cells in pancreatic islets. […] (FIG. 7K) Expression of Adiponectin in WT adipocytes cultured in presence of vehicle or of 1 ng/ml of commercially available carboxylated osteocalcin (Immunotopics) or bacterially produced uncarboxylated osteocalcin. (FIG. 7L) Expression of Insulin and Cyclin D1 in WT islets cultured in presence of 0.3 ng/ml of bacterially produced uncarboxylated osteocalcin or vehicle. (FIG. 7M) Metabolic parameters and total serum osteocalcin levels in control and obese patients. (FIG. 7N-O) Quantification of carboxylated osteocalcin (HA-bound osteocalcin) in control and obese patients. In (FIGS. 7A)-(C) and (FIGS. G)-(L): *p<0.05 versus WT (Student's t test); in (FIG. D)-(F), °p<0.05 versus WT and *p % 0.001 versus WT (ANOVA followed by post hoc analysis).
Mouse islets and adipocytes isolation. Islets were isolated using a Histopaque gradient (1077, Sigma). […]

The test system of assay [3] is Adiponectin expression in WT adipocytes. The experiment in a line: Adiponectin expression in adipocytes treated with osteocalcin (real time PCR). It is filed as cell-based, mouse. The note with it: wild type adipocytes treated for 4 hours, real time PCR, vs vehicle. On the procedure: as §1
FIG. 15. […] Wt adipocytes were treated for 4 hours with recombinant full-length osteocalcin (1-46) or a truncated form (1-36) or vehicle. Adiponectin expression was then quantified by real time PCR.
Primary adipocytes were isolated from epididymal fat pads by collagenase digestion. Briefly, minced adipose tissue was digested by 1 mg/ml collagenase P in KRP Buffer (20 mM HEPES, 120 mM NaCl, 6 mM KCl, 1.2 mM MgSO4, 1 mM CaCl2, 0.6 mM Na2HPO4, 0.4 mM NaH2PO4, 2.5 mM D-glucose, 2% BSA, pH 7.4) for 1 h at 37° C. The isolated cells were washed twice with KRP Buffer before being cultured in αMEM/1% FBS at 37° C. in 5% CO2.
Gene expression analyses. All gene expression analyses were performed using real time PCR. DNAse I-treated total RNA was converted to cDNA with the SuperScript III kit (Invitrogen). Real-time PCR were performed using the Taq SYBR Green Supermix with ROX (Biorad) on an MX3000 instrument (Stratagene); beta-actin amplification was used as an internal reference for each sample. All primers were from SuperArray.
A fragment of uncarboxylated osteocalcin is biologically active. Experiments were performed to test whether truncated osteocalcin was as effective as full-length uncarboxylated osteocalcin in stimulating adiponectin secretion from mouse adipocytes in vitro. Wild type adipocytes were treated for 4 hours with recombinant full-length osteocalcin (1-46) or a truncated form (1-36) (having a deletion of the first ten amino acids from the C-terminal end) or vehicle. Adiponectin expression was then quantified by real time PCR. […]

These results are taken from US9746463B2 (THE TRUSTEES OF COLUMBIA UNIVERSITY IN THE CITY OF NEW YORK, priority 2006, dated 2017).

Ends that are not written are not given here.

On to “uncarboxylated osteocalcin: Recombinant mouse osteocalcin bacterially produced as GST fusion, cleaved with thrombin; completely undercarboxylated at all three sites (YLGASVPSPDPLEPTREQCELNPACDELSDQYGLKTAYKRIYGITI; not fully specified; ends and bridges not checked; UniProt P86546 50-95, looked up)”, for which the results for the glucose tolerance result in assay [1] and in assay [1] (listed as recombinant osteocalcin) were “increased glucose tolerance” and “increases glucose tolerance”, respectively. Moreover, in assay [2], the “expression of Cyclin D1, marker of beta-cell proliferation” value was “induced”. The insulin expression entry in assay [2] is recorded as “induced insulin expression”. Besides, the “increase of Adiponectin expression” value in assay [3] is reported as about 1.5 fold.
